Patent publication US20140255392A1 (BAYER INTELLECTUAL PROPERTY GMBH, priority 2011, published 2014)

Molecular target: T1, human kinase Mps-1 (Homo sapiens, UniProt P33981)
T1 construct: N-terminally GST-tagged human full length recombinant Mps-1 kinase; GST (N); purchased Invitrogen, Karslruhe, Germany PV4071
T1 sequence (P33981 1-857): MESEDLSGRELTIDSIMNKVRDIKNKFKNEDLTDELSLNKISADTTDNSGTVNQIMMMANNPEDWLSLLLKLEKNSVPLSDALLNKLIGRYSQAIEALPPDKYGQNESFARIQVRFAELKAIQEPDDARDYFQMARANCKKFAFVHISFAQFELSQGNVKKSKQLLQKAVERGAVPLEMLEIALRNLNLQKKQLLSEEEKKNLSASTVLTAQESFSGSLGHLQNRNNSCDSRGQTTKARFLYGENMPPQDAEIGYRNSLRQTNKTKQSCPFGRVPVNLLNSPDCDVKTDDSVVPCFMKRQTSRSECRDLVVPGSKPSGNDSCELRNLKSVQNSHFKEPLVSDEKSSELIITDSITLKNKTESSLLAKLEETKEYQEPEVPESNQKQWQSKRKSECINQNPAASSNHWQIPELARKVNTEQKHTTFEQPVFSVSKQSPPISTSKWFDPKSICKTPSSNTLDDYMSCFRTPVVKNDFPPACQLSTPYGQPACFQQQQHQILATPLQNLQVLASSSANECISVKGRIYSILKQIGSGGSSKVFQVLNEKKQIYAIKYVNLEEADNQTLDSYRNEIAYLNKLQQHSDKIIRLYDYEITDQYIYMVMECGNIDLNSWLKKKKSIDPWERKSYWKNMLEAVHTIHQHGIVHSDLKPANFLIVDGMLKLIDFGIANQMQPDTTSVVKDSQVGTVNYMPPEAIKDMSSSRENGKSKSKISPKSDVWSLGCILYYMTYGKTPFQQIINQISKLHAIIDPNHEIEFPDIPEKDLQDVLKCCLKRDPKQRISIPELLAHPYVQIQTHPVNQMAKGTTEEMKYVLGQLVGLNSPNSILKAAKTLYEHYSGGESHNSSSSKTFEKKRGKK
Test: Mps-1 kinase assay (TR-FRET)
Format: biochemical
Details: N-terminally GST-tagged human full length recombinant Mps-1; 10 μM ATP; 1 μM peptide substrate; 60 min at 22° C.
Procedure, shortened: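 Compounds were tested against recombinant full-length Mps-1 bearing an N-terminal GST tag, about 1 nM final, with a biotinylated amide-capped peptide as substrate. Detection reagents were then bound for 1 h at 22° C and the product read by TR-FRET.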

Structure (SMILES) | IC50
C#Cc1cc(NCCC(F)(F)F)c2ncc(-c3ccc(C(=O)NC)c(C)c3)n2c1 [Example 14, 4-{6-ethynyl-8-[(3,3,3-trifluoropropyl)amino]imidazo[1,2-a]pyridin-3-yl}-N,2-dimethylbenzamide] | 65.2 nM
CCNC(=O)c1ccc(-c2cnc3c(NCCC(F)(F)F)cc(/C=C\CO)cn23)cc1C [Example 120, N-ethyl-4-{6-[(12)-3-hydroxyprop-1-en-1-yl]-8-[(3,3,3-trifluoropropyl)amino]imidazo[1,2-a]pyridin-3-yl}-2-methylbenzamide] | 42.2 nM
CNC(=O)c1ccc(-c2cnc3c(NCCC(F)(F)F)cc(/C=C\CO)cn23)cc1C [Example 119, 4-{6-[(1Z)-3-hydroxyprop-1-en-1-yl]-8-[(3,3,3-trifluoropropyl)amino]imidazo[1,2-a]pyridin-3-yl}-N,2-dimethylbenzamide] | 54.7 nM
Cc1ccc(F)cc1Oc1cc(NCCC(F)(F)F)c2ncc(-c3ccc(C(=O)NC4(C#N)CC4)c(C)c3)n2c1 [Example 28, N-(1-cyanocyclopropyl)-4-{6-(5-fluoro-2-methylphenoxy)-8-[(3,3,3-trifluoropropyl)amino]imidazo[1,2-a]pyridin-3-yl}-2-methylbenzamide] | 13.9 nM
CCNC(=O)c1ccc(-c2cnc3c(NCCC(F)(F)F)cc(Oc4ccc(O)c(F)c4)cn23)cc1C [Example 131, N-ethyl-4-{6-(3-fluoro-4-hydroxyphenoxy)-8-[(3,3,3-trifluoropropyl)amino]imidazo[1,2-a]pyridin-3-yl}-2-methylbenzamide] | 1.4 nM
Cc1cc(-c2cnc3c(NCCC(F)(F)F)cc(-c4ccncc4)cn23)ccc1C(=O)NC1CC1 [Example 2-2, N-cyclopropyl-2-methyl-4-{6-(pyridin-4-yl)-8-[(3,3,3-trifluoropropyl)amino]imidazo [1,2-a]pyridin-3-yl} benzamide] | 0.3 nM
COc1ccc(Oc2cc(NCC(F)F)c3ncc(-c4ccc(C(=O)NC5CC5)c(C)c4)n3c2)cc1F [Example 167, N-cyclopropyl-4-{8-[(2,2-difluoroethyl)amino]-6-(3-fluoro-4-methoxyphenoxy)imidazo[1,2-a]pyridin-3-yl}-2-methylbenzamide] | 6.2 nM
C/C=C/c1cc(NCCC(F)(F)F)c2ncc(-c3ccc(C(=O)N[C@H]4C[C@@H]4F)c(C)c3)n2c1 (relative stereo) [Example 116, N-[rel-(1S,2S)-2-fluorocyclopropyl]-2-methyl-4-{6-[(1E)-prop-1-en-1-yl]-8-[(3,3,3-trifluoropropyl)amino]imidazo[1,2-a]pyridin-3-yl}benzamide] | 19.9 nM
CCc1cc(NCCC(F)(F)F)c2ncc(-c3ccc(C(=O)N[C@H]4C[C@@H]4F)c(C)c3)n2c1 (relative stereo) [Example 104, 4-{6-Ethyl-8-[(3,3,3-trifluoropropyl)amino]imidazo[1,2-a]pyridin-3-yl}-N-[rel-(1S,2S)-2-fluorocyclopropyl]-2-methylbenzamide] | 65.3 nM
COc1ccc(Oc2cc(NCCC(F)(F)F)c3ncc(-c4ccc(C(=O)N[C@H]5C[C@@H]5F)c(C)c4)n3c2)cc1F (relative stereo) [Example 124, N-[rel-(1S,2S)-2-fluorocyclopropyl]-4-{6-(3-fluoro-4-methoxyphenoxy)-8-[(3,3,3-trifluoropropyl)amino]imidazo[1,2-a]pyridin-3-yl}-2-methylbenzamide] | 0.7 nM
Cc1cc(-c2cnc3c(NCCC(F)(F)F)cc(Oc4ccccc4)cn23)ccc1C(=O)NC1CC1 [Example 33, N-cyclopropyl-2-methyl-4-{6-phenoxy-8-[(3,3,3-trifluoropropyl)amino]imidazo[1,2-a]pyridin-3-yl}benzamide] | 0.7 nM
Cc1cc(-c2cnc3c(NCCC(F)(F)F)cc(-c4ccccc4O)cn23)ccc1C(=O)NC1CC1 [Example 132, N-cyclopropyl-4-{6-(2-hydroxyphenyl)-8-[(3,3,3-trifluoropropyl)amino]imidazo[1,2-a]pyridin-3-yl}-2-methylbenzamide] | 1.1 nM
